One data set relates to circulating lymphocytes. In words: Blood Lymphocyte Reduction (BLR) assay in rodent. Format: in vivo. To be noted: Lewis rats dosed orally; for BL (×10^3/mm^3): n=2; for Lymp. Red.: vs vehicle group. The procedure: (§1) Blood Lymphocyte Reduction (BLR) Assay in Rodent:
Lewis rats were dosed orally with vehicle alone (polyethylene glycol 300, “PEG300”) or with test compounds. Compounds were dosed as a solution or suspension in the vehicle, adjusted to reflect the free amount of test article in the event that salt forms are utilized. […] The results were measured as a reduction in the percentage of circulating lymphocytes as compared to the vehicle treated group at the time of measurement. The results represent the average results of all animals within each treatment group (n=2).

Data set [1] is described as follows: Parent and phosphate concentrations in the BLR assay. Conditions: rat, in vivo, po, Lewis rats dosed orally. The procedure: as §1
Lewis rats were dosed orally with vehicle alone (polyethylene glycol 300, “PEG300”) or with test compounds. Compounds were dosed as a solution or suspension in the vehicle, adjusted to reflect the free amount of test article in the event that salt forms are utilized. Blood was drawn at 24 hr and blood lymphocyte counts were determined on an ADVIA 120 Hematology Analyzer (Siemens Healthcare Diagnostics). The results were measured as a reduction in the percentage of circulating lymphocytes as compared to the vehicle treated group at the time of measurement. The results represent the average results of all animals within each treatment group (n=2).

Test in data set [2]: as above
Conditions: rat, in vivo, po, Lewis rats dosed orally. This is another data set of the same source.

Consider `CCCCOc1nc2c(s1)-c1ccc([C@H]3CC[C@](N)(CO)C3)cc1CC2` [Example 8, ((1R,3S)-1-amino-3-(2-butoxy-4,5-dihydronaphtho[2,1-d]thiazol-7-yl)cyclopentyl)methanol], for which, in the data set with circulating lymphocytes (4 Hours), the “BL (×10^3/mm^3)” value is reported as 2.5 ×10^3/mm^3 and the “Lymp. Red.” value is listed as 74%. Moreover, in the data set on circulating lymphocytes (24 Hours), the “BL (×10^3/mm^3)” value is 2.4 ×10^3/mm^3 and the “Lymp. Red.” value was 68%. Moreover, the concentration at 24 h in data set [1] amounted to 7 nM. Further, the concentration at 4 h in data set [2] was 35 nM.
Turning to `CCCCc1nc2c(s1)-c1ccc([C@H]3CC[C@](N)(CO)C3)cc1CC2` [Example 6, ((1R,3S)-1-amino-3-(2-butyl-4,5-dihydronaphtho[2,1-d]thiazol-7-yl)cyclopentyl)methanol], in the data set with circulating lymphocytes (4 Hours), the “BL (×10^3/mm^3)” value is 3.4 ×10^3/mm^3 and the “Lymp. Red.” value is recorded as 59%. In addition, in the data set with circulating lymphocytes (24 Hours), the “BL (×10^3/mm^3)” value was 1.5 ×10^3/mm^3 and the “Lymp. Red.” value is given as 82%. Moreover, the concentration at 24 h in data set [1] was found to be 66 nM. Further, the concentration at 4 h in data set [2] came out at 109 nM.
For the compound `CCCCCCc1nc2c(s1)-c1ccc([C@H]3CC[C@](N)(CO)C3)cc1CC2` [Example 5, ((1R,3S)-1-amino-3-(2-hexyl-4,5-dihydronaphtho[2,1-d]thiazol-7-yl)cyclopentyl)methanol], in the data set with circulating lymphocytes (4 Hours), the “BL (×10^3/mm^3)” value was 2.8 ×10^3/mm^3 and the “Lymp. Red.” value was found to be 66%. In the data set on circulating lymphocytes (24 Hours), the “BL (×10^3/mm^3)” value was 4.5 ×10^3/mm^3 and the “Lymp. Red.” value is recorded as 48%. Further, the concentration at 24 h in data set [1] stood at 9 nM. In data set [2], the concentration at 4 h amounted to 77 nM.
Regarding `CCCCCCOc1nc2ccc3cc([C@H]4CC[C@](N)(CO)C4)ccc3c2s1` [Example 13, ((1R,3S)-1-amino-3-(2-(hexyloxy)naphtho[2,1-d]thiazol-7-yl)cyclopentyl)methanol], the “BL (×10^3/mm^3)” value in the data set with circulating lymphocytes (4 Hours) is 2.5 ×10^3/mm^3; in the data set with circulating lymphocytes (24 Hours), 1.4 ×10^3/mm^3. Further, the results for the “Lymp. Red.” value in the data set on circulating lymphocytes (4 Hours) and in the data set with circulating lymphocytes (24 Hours) were 73% and 83%, respectively. The concentration at 24 h in data set [1] was determined as 78 nM. Further, the concentration at 4 h in data set [2] was determined as 65 nM.
Consider `CCCCSc1nc2c(s1)-c1ccc([C@H]3CC[C@](N)(CO)C3)cc1CC2` [Example 10, ((1R,3S)-1-amino-3-(2-(butylthio)-4,5-dihydronaphtho[2,1-d]thiazol-7-yl)cyclopentyl)methanol], for which the “BL (×10^3/mm^3)” value in the data set with circulating lymphocytes (4 Hours) is recorded as 1.7 ×10^3/mm^3; in the data set on circulating lymphocytes (24 Hours), 4.1 ×10^3/mm^3. Further, the “Lymp. Red.” value was found to be 82% in the data set with circulating lymphocytes (4 Hours) and 48% with circulating lymphocytes (24 Hours). Besides, the concentration at 24 h in data set [1] stood at 1 nM. Besides, in data set [2], the concentration at 4 h is 9 nM.
With `COc1cccc(-c2nc3c(s2)-c2ccc([C@H]4CC[C@](N)(CO)C4)cc2CC3)c1` [Example 20, ((1R,3S)-1-amino-3-(2-(3-methoxyphenyl)-4,5-dihydronaphtho[2,1-d]thiazol-7-yl)cyclopentyl)methanol], the “BL (×10^3/mm^3)” value in the data set on circulating lymphocytes (4 Hours) is recorded as 5.7 ×10^3/mm^3; with circulating lymphocytes (24 Hours), 3.1 ×10^3/mm^3. The results for the “Lymp. Red.” value with circulating lymphocytes (4 Hours) and in the data set on circulating lymphocytes (24 Hours) were 31% and 63%, respectively. In addition, the concentration at 24 h in data set [1] is 68 nM. Further, the concentration at 4 h in data set [2] is 97 nM.
With `CCCc1nc2c(s1)-c1ccc([C@H]3CC[C@](N)(CO)C3)cc1CC2` [Example 2, ((1R,3S)-1-amino-3-(2-propyl-4,5-dihydronaphtho[2,1-d]thiazol-7-yl)cyclopentyl) methanol], in the data set on circulating lymphocytes (4 Hours), the “BL (×10^3/mm^3)” value is recorded as 4.9 ×10^3/mm^3 and the “Lymp. Red.” value came out at 41%. In the data set with circulating lymphocytes (24 Hours), the “BL (×10^3/mm^3)” value was 8.2 ×10^3/mm^3 and the “Lymp. Red.” value worked out at 0%. For the same compound, the concentration at 24 h in data set [1] was below 19 nM. Moreover, in data set [2], the concentration at 4 h came to 108 nM.

Values taken from patent publication US10633354B2, “Substituted tricyclic heterocyclic compounds” (BRISTOL-MYERS SQUIBB COMPANY, priority 2016, dated 2020).
